Converted amounts (≈) assume the structure as drawn.
Key:
P. Fluorescens [1] = experiment: Antimicrobial efficacy of pure CA and PLA-PEO-CA nonwoven; format: cell-based, Pseudomonas fluorescens; settings: 25° C.
Experimental: (§1) The antimicrobial activity of PLA-PEO-CA nonwoven was tested on two spoilage microorganisms, P. fluorescens and P. aphanidermatum. One of each freshly inoculated P. fluorescens and P. aphanidermatum petri dishes, with the lid removed, were placed in a one-liter glass jar. A piece of PLA-PEO-CA nonwoven or a certain amount of liquid CA was placed in the middle of the jar without touching the petri dishes and the lid was closed immediately. The jar was incubated at 25° C. The growth of the microorganisms was monitored every 24 h for 4 d.

P. aphanidermatum = experiment: as above; format: cell-based, Pythium aphanidermatum; settings: 25° C.
Experimental: as §1

Yeast = experiment: Inhibitory effects of AITC, diacetyl and cinnamaldehyde vapour; format: cell-based, yeast isolated from mung bean sprouts
Experimental: (§2) P. fluorescens was selected as a model spoilage bacteria, while mould and yeast were isolated from spoiled mung bean sprouts with bacteria excluded by cultivating in potato dextrose broth (PDB) (Sigma, Oakville, ON, Canada) at pH 5.6±0.2. Yeast and P. fluorescens stocks were cultivated in PDB and trypticase soy broth (TSB) (Bacto, BD, Sparks, USA), respectively, at 30° C. for 24 h and diluted with sterile saline solution (NaCl, 8.5 g/L water) to a concentration of 10^6 CFU/mL. An aliquot of 50 μL of the prepared yeast or bacteria suspension was spread on potato dextrose agar (PDA) (Difco, BD, Sparks, USA) or trypticase soy agar (TSA) (Bacto, BD, Sparks, USA), respectively, in 5 cm diameter petri dishes (Fisher Scientific, Ottawa, ON, Canada). Mycelium of mould was inoculated as one spot at the center of the PDA dishes. Two freshly inoculated petri dishes of same microorganism, with their lids removed, were placed in a one-liter glass jar. […] The growth of the microorganisms was monitored by the colony formation for 3 days.

Mould = experiment: as above; format: cell-based, mould isolated from mung bean sprouts; settings: 25° C.
Experimental: as §2

P. Fluorescens [2] = experiment: as above; format: cell-based, Pseudomonas fluorescens P33; settings: 25° C.
Experimental: as §2

[3] = Amount 2 mg in one-liter jar, 25° C.
[4] = Amount 5 mg in one-liter jar, 25° C.
[5] = Amount 10 mg in one-liter jar, 25° C.
[6] = Amount 20 mg in one-liter jar, 25° C.

Question: `O=CC=Cc1ccccc1` [Cinnamaldehyde] was tested. Which “P. Fluorescens Day 1, visual colony number” value (P. Fluorescens [1]; 2 mg liquid CA in 1 L jar) did it give?
Answer: ++ (15-50)

Question: What about the “P. Fluorescens Day 2, visual colony number” value (P. Fluorescens [1]; 2 mg liquid CA in 1 L jar) of the same compound?
Answer: ++++ (more than 150)

Question: And the “P. Fluorescens Day 3, visual colony number” value (P. Fluorescens [1]; 2 mg liquid CA in 1 L jar)?
Answer: ++++ (more than 150)

Question: What about the “P. Fluorescens Day 4, visual colony number” value (P. Fluorescens [1]; 2 mg liquid CA in 1 L jar) of the same compound?
Answer: ++++ (more than 150)

Question: What about the “P. Fluorescens Day 1, visual colony number” value (P. Fluorescens [1]; 5 mg liquid CA in 1 L jar) of the same compound?
Answer: ++ (15-50)

Question: And the “P. Fluorescens Day 2, visual colony number” value (P. Fluorescens [1]; 5 mg liquid CA in 1 L jar)?
Answer: ++++ (more than 150)

Question: And the “P. Fluorescens Day 3, visual colony number” value (P. Fluorescens [1]; 5 mg liquid CA in 1 L jar)?
Answer: ++++ (more than 150)

Question: And the “P. Fluorescens Day 4, visual colony number” value (P. Fluorescens [1]; 5 mg liquid CA in 1 L jar)?
Answer: ++++ (more than 150)

Question: What about the “P. Fluorescens Day 1, visual colony number” value (P. Fluorescens [1]; 10 mg liquid CA in 1 L jar) of the same compound?
Answer: + (less than 15)

Question: What about the “P. Fluorescens Day 2, visual colony number” value (P. Fluorescens [1]; 10 mg liquid CA in 1 L jar) of the same compound?
Answer: +++ (50-150)

Question: And the “P. Fluorescens Day 3, visual colony number” value (P. Fluorescens [1]; 10 mg liquid CA in 1 L jar)?
Answer: +++ (50-150)

Question: What about the “P. Fluorescens Day 4, visual colony number” value (P. Fluorescens [1]; 10 mg liquid CA in 1 L jar) of the same compound?
Answer: +++ (50-150)

Question: And the “P. Fluorescens Day 2, visual colony number” value (P. Fluorescens [1]; 30 mg liquid CA in 1 L jar)?
Answer: + (less than 15)

Question: What about the “P. Fluorescens Day 3, visual colony number” value (P. Fluorescens [1]; 30 mg liquid CA in 1 L jar) of the same compound?
Answer: + (less than 15)

Question: What about the “P. Fluorescens Day 4, visual colony number” value (P. Fluorescens [1]; 30 mg liquid CA in 1 L jar) of the same compound?
Answer: + (less than 15)

Question: What about the “P. aphanidermatum Day 1, colony diameter” value (P. aphanidermatum; 2 mg liquid CA in 1 L jar) of the same compound?
Answer: 1.3 mm

Question: And the “P. aphanidermatum Day 2, colony diameter” value (P. aphanidermatum; 2 mg liquid CA in 1 L jar)?
Answer: 2.8 mm

Question: What about the “P. aphanidermatum Day 3, colony diameter” value (P. aphanidermatum; 2 mg liquid CA in 1 L jar) of the same compound?
Answer: 4 mm

Question: What about the “P. aphanidermatum Day 4, colony diameter” value (P. aphanidermatum; 2 mg liquid CA in 1 L jar) of the same compound?
Answer: 5 mm

Question: And the “P. aphanidermatum Day 1, colony diameter” value (P. aphanidermatum; 5 mg liquid CA in 1 L jar)?
Answer: 1 mm

Question: What about the “P. aphanidermatum Day 2, colony diameter” value (P. aphanidermatum; 5 mg liquid CA in 1 L jar) of the same compound?
Answer: 2.1 mm

Question: What about the “P. aphanidermatum Day 3, colony diameter” value (P. aphanidermatum; 5 mg liquid CA in 1 L jar) of the same compound?
Answer: 2.8 mm

Question: What about the “P. aphanidermatum Day 4, colony diameter” value (P. aphanidermatum; 5 mg liquid CA in 1 L jar) of the same compound?
Answer: 3.5 mm

Question: And the “P. aphanidermatum Day 1, colony diameter” value (P. aphanidermatum; 10 mg liquid CA in 1 L jar)?
Answer: 0.8 mm

Question: And the “P. aphanidermatum Day 2, colony diameter” value (P. aphanidermatum; 10 mg liquid CA in 1 L jar)?
Answer: 1.6 mm

Question: And the “P. aphanidermatum Day 3, colony diameter” value (P. aphanidermatum; 10 mg liquid CA in 1 L jar)?
Answer: 2.2 mm

Question: What about the “P. aphanidermatum Day 4, colony diameter” value (P. aphanidermatum; 10 mg liquid CA in 1 L jar) of the same compound?
Answer: 2.7 mm

Question: And the “P. aphanidermatum Day 1, colony diameter” value (P. aphanidermatum; 30 mg liquid CA in 1 L jar)?
Answer: 0.7 mm

Question: What about the “P. aphanidermatum Day 2, colony diameter” value (P. aphanidermatum; 30 mg liquid CA in 1 L jar) of the same compound?
Answer: 1.4 mm

Question: What about the “P. aphanidermatum Day 3, colony diameter” value (P. aphanidermatum; 30 mg liquid CA in 1 L jar) of the same compound?
Answer: 1.8 mm

Question: And the “P. aphanidermatum Day 4, colony diameter” value (P. aphanidermatum; 30 mg liquid CA in 1 L jar)?
Answer: 2 mm

Question: What about the “Yeast day1, visual colony number” value (Yeast; [3]) of the same compound?
Answer: + (less than 15)

Question: And the “Yeast day2, visual colony number” value (Yeast; [3])?
Answer: + (less than 15)

Question: What about the “Yeast day3, visual colony number” value (Yeast; [3]) of the same compound?
Answer: ++ (15-50)

Question: What about the “Yeast day1, visual colony number” value (Yeast; [4]) of the same compound?
Answer: + (less than 15)

Question: And the “Yeast day2, visual colony number” value (Yeast; [4])?
Answer: + (less than 15)

Question: What about the “Yeast day3, visual colony number” value (Yeast; [4]) of the same compound?
Answer: + (less than 15)

Question: What about the “Yeast day1, visual colony number” value (Yeast; [5]) of the same compound?
Answer: + (less than 15)

Question: And the “Yeast day2, visual colony number” value (Yeast; [5])?
Answer: + (less than 15)

Question: And the “Yeast day3, visual colony number” value (Yeast; [5])?
Answer: + (less than 15)

Question: What about the “Yeast day1, visual colony number” value (Yeast; [6]) of the same compound?
Answer: + (less than 15)

Question: And the “Yeast day2, visual colony number” value (Yeast; [6])?
Answer: + (less than 15)

Question: What about the “Yeast day3, visual colony number” value (Yeast; [6]) of the same compound?
Answer: + (less than 15)

Question: What about the MIC (Yeast; established on yeast, mould and P. fluorescens from Table 8, read-out: minimum inhibition concentration (MIC)) of the same compound?
Answer: 30 µg/mL (≈ 227 µM)

Question: And the “effective concentration against yeast” value (Yeast; vapour in one-liter jar, 25° C.)?
Answer: 30 mg/L

Question: What about the “Mould day1, visual colony number” value (Mould; Amount 2 mg in one-liter jar) of the same compound?
Answer: ++ (15-50)

Question: And the “Mould day2, visual colony number” value (Mould; Amount 2 mg in one-liter jar)?
Answer: ++ (15-50)

Question: What about the “Mould day3, visual colony number” value (Mould; Amount 2 mg in one-liter jar) of the same compound?
Answer: ++ (15-50)

Question: And the “Mould day1, visual colony number” value (Mould; Amount 5 mg in one-liter jar)?
Answer: + (less than 15)

Question: What about the “Mould day2, visual colony number” value (Mould; Amount 5 mg in one-liter jar) of the same compound?
Answer: + (less than 15)

Question: What about the “Mould day3, visual colony number” value (Mould; Amount 5 mg in one-liter jar) of the same compound?
Answer: + (less than 15)

Question: What about the “Mould day1, visual colony number” value (Mould; Amount 10 mg in one-liter jar) of the same compound?
Answer: + (less than 15)

Question: And the “Mould day2, visual colony number” value (Mould; Amount 10 mg in one-liter jar)?
Answer: + (less than 15)

Question: And the “Mould day3, visual colony number” value (Mould; Amount 10 mg in one-liter jar)?
Answer: + (less than 15)

Question: What about the “Mould day1, visual colony number” value (Mould; Amount 20 mg in one-liter jar) of the same compound?
Answer: + (less than 15)

Question: And the “Mould day2, visual colony number” value (Mould; Amount 20 mg in one-liter jar)?
Answer: + (less than 15)

Question: And the “Mould day3, visual colony number” value (Mould; Amount 20 mg in one-liter jar)?
Answer: + (less than 15)

Question: And the “concentration that inhibited the growth of mould for three days” value (Mould; vapour in one-liter jar)?
Answer: 30 mg/L

Question: And the “P. Fluorescens day1, visual colony number” value (from here on “P. Fluorescens day1”) (P. Fluorescens [2]; Amount 2 mg in one-liter jar)?
Answer: +++ (50-150)

Question: And the “P. Fluorescens day2, visual colony number” value (“P. Fluorescens day2” for short) (P. Fluorescens [2]; Amount 2 mg in one-liter jar)?
Answer: +++ (50-150)

Question: What about the “P. Fluorescens day1” value (P. Fluorescens [2]; Amount 5 mg in one-liter jar) of the same compound?
Answer: ++ (15-50)

Question: And the “P. Fluorescens day2” value (P. Fluorescens [2]; Amount 5 mg in one-liter jar)?
Answer: ++ (15-50)

Question: And the “P. Fluorescens day1” value (P. Fluorescens [2]; Amount 10 mg in one-liter jar)?
Answer: + (less than 15)

Question: What about the “P. Fluorescens day2” value (P. Fluorescens [2]; Amount 10 mg in one-liter jar) of the same compound?
Answer: + (less than 15)

Question: And the “P. Fluorescens day1” value (P. Fluorescens [2]; Amount 20 mg in one-liter jar)?
Answer: + (less than 15)

Question: What about the “P. Fluorescens day2” value (P. Fluorescens [2]; Amount 20 mg in one-liter jar) of the same compound?
Answer: + (less than 15)

Question: What about the “effective concentration against P. fluorescens” value (P. Fluorescens [2]; vapour in one-liter jar) of the same compound?
Answer: 30 mg/L

Source: patent US11013249B2, “Compositions for controlled release of volatile compounds” (University of Guelph, priority 2016, dated 2021)
